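The compound was tested at five concentrations on cells cultured in 96-well plates, with a 48-hour exposure period. GI50 marks 50% less growth. TGI is the concentration that stops growth completely.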
tested on: ACHN renal; test: growth of human tumour cells (NCI), 48 h

| Structure (SMILES) | GI50 [µM] | TGI [µM] |
| --- | --- | --- |
| FC(F)(F)c1cccc(Nc2nc(-c3ccccc3)nc3ncccc23)c1 | 3.3 | 11.4 |
| COC(=O)c1ccccc1NC(=O)C(=O)Cc1nc2c3c(ccc2[nH]c1=O)C(=O)c1ccccc1C3=O |  | > 100 |
| Cc1ccc(S(=O)(=O)OC[C@@H]2CO2)cc1 |  | > 100 |
| O=C(CC(=O)c1cccc2ccccc12)C(=O)Nc1ccc(Cl)cc1 |  | > 100 |
| C=CCO[C@H]1CO[C@H]2[C@@H]1OC[C@@H]2Oc1ccc(Nc2ccnc(Nc3ccc(O[C@H]4CO[C@H]5[C@@H]4OC[C@@H]5OCC=C)c(Cl)c3)n2)cc1Cl | 1.77 | 3.31 |
| OCc1cc2ccccc2c2c3c(ccc12)OCO3 | 32.1 | 141 |
| CC1(C(=O)O)CCC[C@@]2(C)C1CC[C@@]1(C)c3cocc3CCC21 (stereo partly specified) |  | > 100 |
| CCn1c(C)nn2c(=O)c3ccccc3nc2c1=O |  | > 100 |
| COc1cnc2c(c1)C(=O)c1c-2n(CCCN2CCOCC2)c(=O)c2cc(F)ccc12 | 0.177 | 0.6 |
| CCOC(=O)CCC1(C(=O)OCC)CCCCC1=O (stereo unspecified) |  | > 100 |
| CCOC1Oc2ccccc2C(=O)/C1=C/Nc1ccc(C(C)=O)cc1 (stereo unspecified) | 18.6 | 44 |
| Cc1nc2c(ccc3ncccc32)[nH]1 |  | > 100 |
| CCN1CCN(Cc2ccc(NC(=O)c3cccc(C#Cc4cccc5[nH]nc(N)c45)c3)cc2C(F)(F)F)CC1 | 0.18 | 0.933 |
| Cc1cc(N(CCC#N)CCC#N)ccc1N=Nc1ccc(S(N)(=O)=O)cc1 |  | > 100 |
| CC(C)=CCC\C(C)=C/C=C/C(C)=C\C=C\C(C)=C/C=C/C=C(C)\C=C\C=C(C)/C=C/C=C(/C)CCC=C(C)C |  | > 100 |
| CC(=O)[CH-]C(=O)c1ccccc1.CC(=O)[CH-]C(=O)c1ccccc1.CN(C)c1ccc([O-])cc1.CN(C)c1ccc([O-])cc1.Cl.[Ti+4] | 16.9 | > 31.6 |
| CC1(C)C(=O)/C=C\C(=O)C(C)(C)C2=CC=C(O2)C(C)(C)C(=O)/C=C\C(=O)C(C)(C)C2=CC=C1O2 |  | > 100 |
| COC(=O)CC[N+]1=CCC(c2ccccc2)(c2ccccc2)O1 |  | > 100 |
| CCN(CC)N=Nc1c(C(N)=O)n[nH]c1C |  | > 100 |
| CCC[CH2][Sn]([CH2]CCC)([S]c1cccc2cccnc12)[S]c1cccc2cccnc12 | 0.193 | 0.396 |
| OCC1=CC(NC2CC(CO)C(O)C(O)C2O)C(O)C(O)C1O (stereo unspecified) |  | > 100 |
| Nc1ccccc1S(=O)(=O)N(CC(=O)O)c1ccccc1 |  | > 100 |
| CCOC(=O)C(C)(C)Oc1ccc2c(-c3ccccc3)cc(=O)oc2c1 |  | > 100 |
| Cc1cc(NS(=O)(=O)c2ccc(Nc3c4ccccc4nc4c(C(=O)N5CCN(CCOS(C)(=O)=O)CC5)cccc34)cc2)no1 |  | > 100 |
| NC1=NCCC1(c1ccccc1)c1ccccn1 (stereo unspecified) |  | > 100 |
| CC1CCc2nc[nH]c(=O)c21 (stereo unspecified) | > 100 | > 100 |
| CNC(=S)OCCC(C)CCCC(C)C (stereo unspecified) |  | 32.8 |
| COC1/C=C/OC2(C)Oc3c(C)c(O)c4c(O)c(c(/C=N/Nc5ccc([N+](=O)[O-])cc5[N+](=O)[O-])c(O)c4c3C2=O)NC(=O)C(C)=C/C=C/C(C)C(O)C(C)C(O)C(C)C(OC(C)=O)C1C (stereo unspecified) | 3.56 | 11.4 |
| Cc1cnc(NCCCN(C)C)c2c1[nH]c1ccc3cc(O)ccc3c12 |  | 4.89 |

tested on: SR leukemia; test: growth of human tumour cells (NCI), 48 h

| Structure (SMILES) | TGI [µM] | GI50 [µM] |
| --- | --- | --- |
| CCCCCCCCCCCC(=O)OCCOCCOCCOCCOCCOCc1ccccc1 | > 100 |  |
| O=C(Nc1nc2ccc([N+](=O)[O-])cc2s1)C(=O)C(C1OC(=O)c2ccccc21)[N+](=O)[O-] (stereo unspecified) | > 100 |  |
| Cc1cc(-c2nc(C(=O)Nc3cc4oc(N5CCOCC5)nc4nc3N3CC[C@@H](O)C3)co2)ccn1 | > 100 | 30.9 |
| Cc1ccc(Cl)c2c(N=Nc3ccccc3[N+](=O)[O-])c(O)[nH]c12 | > 100 |  |
| FC(F)(F)c1cccc(Nc2nc(-c3ccccc3)nc3ncccc23)c1 | 13.3 | 2.61 |
| Cc1ccc(S(=O)(=O)OC[C@@H]2CO2)cc1 | > 100 |  |
| OCc1cc2ccccc2c2c3c(ccc12)OCO3 | 76.8 | 28.4 |
| CC1(C(=O)O)CCC[C@@]2(C)C1CC[C@@]1(C)c3cocc3CCC21 (stereo partly specified) | > 100 |  |
| COc1cnc2c(c1)C(=O)c1c-2n(CCCN2CCOCC2)c(=O)c2cc(F)ccc12 | 1.27 | 0.0829 |
| CCN1CCN(Cc2ccc(NC(=O)c3cccc(C#Cc4cccc5[nH]nc(N)c45)c3)cc2C(F)(F)F)CC1 | 0.732 | 0.238 |
| CC(C)=CCC\C(C)=C/C=C/C(C)=C\C=C\C(C)=C/C=C/C=C(C)\C=C\C=C(C)/C=C/C=C(/C)CCC=C(C)C | > 100 |  |
| CC1(C)C(=O)/C=C\C(=O)C(C)(C)C2=CC=C(O2)C(C)(C)C(=O)/C=C\C(=O)C(C)(C)C2=CC=C1O2 | > 100 |  |
| CCOC(=O)C(C)(C)Oc1ccc2c(-c3ccccc3)cc(=O)oc2c1 | 88.7 |  |
| CNC(=S)OCCC(C)CCCC(C)C (stereo unspecified) | 31.9 |  |

tested on: COLO 205 colon; test: growth of human tumour cells (NCI), 48 h

| Structure (SMILES) | GI50 [µM] | TGI [µM] |
| --- | --- | --- |
| Nc1nc(-n2c(-c3ccccc3)nc3c(Br)cc(Br)cc3c2=O)nnc1-c1cccc(Cl)c1Cl | 8.88 | > 100 |
| Cc1c(C(=O)C/C(=N/NC(=O)c2ccccc2O)C(=O)Nc2ccccc2C(C)C)[n+](=O)c2ccccc2n1[O-] |  | > 100 |
| CCCCCCCCCCCC(=O)OCCOCCOCCOCCOCCOCc1ccccc1 |  | > 100 |
| CCCC1C(=O)CCc2c(OC)ccc(OC)c21 (stereo unspecified) |  | > 100 |
| O=C(CCc1nc(=S)[nH][nH]1)Nc1cc(Cl)c(Cl)cc1Cl |  | > 100 |
| COc1ccc(CC2c3cc4c(cc3CCN2C)OCO4)c(C=O)c1OC (stereo unspecified) |  | > 100 |
| O=C(Nc1nc2ccc([N+](=O)[O-])cc2s1)C(=O)C(C1OC(=O)c2ccccc21)[N+](=O)[O-] (stereo unspecified) |  | > 100 |
| Cc1cc(-c2nc(C(=O)Nc3cc4oc(N5CCOCC5)nc4nc3N3CC[C@@H](O)C3)co2)ccn1 | 37.2 | > 100 |
| COC(=O)C1(C(C)C)CCc2c(OC)ccc(OC)c2C1=O (stereo unspecified) |  | > 100 |
| Cc1ccc(Cl)c2c(N=Nc3ccccc3[N+](=O)[O-])c(O)[nH]c12 |  | > 100 |
| FC(F)(F)c1cccc(Nc2nc(-c3ccccc3)nc3ncccc23)c1 | 4.07 | 13.9 |
| COC(=O)c1ccccc1NC(=O)C(=O)Cc1nc2c3c(ccc2[nH]c1=O)C(=O)c1ccccc1C3=O |  | > 100 |
| Cc1ccc(S(=O)(=O)OC[C@@H]2CO2)cc1 |  | > 100 |
| O=C(CC(=O)c1cccc2ccccc12)C(=O)Nc1ccc(Cl)cc1 |  | > 100 |
| C=CCO[C@H]1CO[C@H]2[C@@H]1OC[C@@H]2Oc1ccc(Nc2ccnc(Nc3ccc(O[C@H]4CO[C@H]5[C@@H]4OC[C@@H]5OCC=C)c(Cl)c3)n2)cc1Cl | 1.6 | 4.06 |
| OCc1cc2ccccc2c2c3c(ccc12)OCO3 | 18.8 | 37.4 |
| CC1(C(=O)O)CCC[C@@]2(C)C1CC[C@@]1(C)c3cocc3CCC21 (stereo partly specified) |  | > 100 |
| CCn1c(C)nn2c(=O)c3ccccc3nc2c1=O |  | > 100 |
| CCOC(=O)CCC1(C(=O)OCC)CCCCC1=O (stereo unspecified) |  | > 100 |

| Structure (SMILES) | GI50 [µM] | TGI [µM] |
| --- | --- | --- |
| CCOC1Oc2ccccc2C(=O)/C1=C/Nc1ccc(C(C)=O)cc1 (stereo unspecified) | 55.2 | > 100 |
| Cc1nc2c(ccc3ncccc32)[nH]1 |  | > 100 |
| CCN1CCN(Cc2ccc(NC(=O)c3cccc(C#Cc4cccc5[nH]nc(N)c45)c3)cc2C(F)(F)F)CC1 | 0.185 | 1.28 |
| Cc1cc(N(CCC#N)CCC#N)ccc1N=Nc1ccc(S(N)(=O)=O)cc1 |  | > 100 |
| CC(C)=CCC\C(C)=C/C=C/C(C)=C\C=C\C(C)=C/C=C/C=C(C)\C=C\C=C(C)/C=C/C=C(/C)CCC=C(C)C |  | > 100 |
| CC(=O)[CH-]C(=O)c1ccccc1.CC(=O)[CH-]C(=O)c1ccccc1.CN(C)c1ccc([O-])cc1.CN(C)c1ccc([O-])cc1.Cl.[Ti+4] | 14.9 | 22.5 |
| CC1(C)C(=O)/C=C\C(=O)C(C)(C)C2=CC=C(O2)C(C)(C)C(=O)/C=C\C(=O)C(C)(C)C2=CC=C1O2 |  | > 100 |
| COC(=O)CC[N+]1=CCC(c2ccccc2)(c2ccccc2)O1 |  | > 100 |
| CCN(CC)N=Nc1c(C(N)=O)n[nH]c1C |  | > 100 |
| CCC[CH2][Sn]([CH2]CCC)([S]c1cccc2cccnc12)[S]c1cccc2cccnc12 | 0.0592 | 0.224 |
| OCC1=CC(NC2CC(CO)C(O)C(O)C2O)C(O)C(O)C1O (stereo unspecified) |  | > 100 |
| Nc1ccccc1S(=O)(=O)N(CC(=O)O)c1ccccc1 |  | > 100 |
| CCOC(=O)C(C)(C)Oc1ccc2c(-c3ccccc3)cc(=O)oc2c1 |  | 42.7 |
| Cc1cc(NS(=O)(=O)c2ccc(Nc3c4ccccc4nc4c(C(=O)N5CCN(CCOS(C)(=O)=O)CC5)cccc34)cc2)no1 |  | > 100 |
| NC1=NCCC1(c1ccccc1)c1ccccn1 (stereo unspecified) |  | > 100 |
| CC1CCc2nc[nH]c(=O)c21 (stereo unspecified) | > 100 | > 100 |
| COC1/C=C/OC2(C)Oc3c(C)c(O)c4c(O)c(c(/C=N/Nc5ccc([N+](=O)[O-])cc5[N+](=O)[O-])c(O)c4c3C2=O)NC(=O)C(C)=C/C=C/C(C)C(O)C(C)C(O)C(C)C(OC(C)=O)C1C (stereo unspecified) | 2.8 | 10.5 |
| Cc1cnc(NCCCN(C)C)c2c1[nH]c1ccc3cc(O)ccc3c12 |  | 1.57 |
